Reference: article PMC6556873, “Rapid Covalent-Probe Discovery by Electrophile-Fragment Screening” (Journal of the American Chemical Society, 2019)
Where two headings read alike, the source gives them in different places.

What was measured:
NNMT (hNNMT) = target: T1, NNMT (hNNMT) (Homo sapiens, UniProt P40261); design: Intact protein LC/MS covalent labelling, fragments in pools of five, 200 uM each, 4 °C; details: 24 h, 4 °C, pool of five; 200 µM; covalent
T1 construct: wild type, N-terminal His6 tag kept (no cleavage described), E. coli, construct 31248 Da
T1 sequence (P40261 1-264): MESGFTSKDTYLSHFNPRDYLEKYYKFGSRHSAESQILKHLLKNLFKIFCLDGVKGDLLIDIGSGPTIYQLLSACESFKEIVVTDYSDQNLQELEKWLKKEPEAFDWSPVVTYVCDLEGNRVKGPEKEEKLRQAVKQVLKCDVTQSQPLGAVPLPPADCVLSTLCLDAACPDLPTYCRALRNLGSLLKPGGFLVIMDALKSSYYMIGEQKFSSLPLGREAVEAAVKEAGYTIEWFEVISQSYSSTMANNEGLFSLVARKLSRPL

NUDT7 = target: T2, NUDT7 (Homo sapiens, UniProt P0C024); design: Intact protein LC/MS covalent labelling, fragments in pools of five, 200 uM each, 4 °C; details: 24 h, 4 °C, pool of five; 200 µM; covalent
T2 construct: residues 14-235, E. coli, pNIC28-Bsa4, N-terminal His6 tag removed by TEV, construct 26672 Da

OTUB2 (OTUB2A) = target: T3, OTUB2 (OTUB2A) (Homo sapiens, UniProt Q96DC9); design: Intact protein LC/MS covalent labelling, fragments in pools of five, 200 uM each, 4 °C; details: 24 h, 4 °C, pool of five; 200 µM; covalent
T3 construct: full length residues 1-234, E. coli BL21(DE3)-R3, His tag removed by TEV, construct 27312 Da
T3 sequence (Q96DC9 1-234): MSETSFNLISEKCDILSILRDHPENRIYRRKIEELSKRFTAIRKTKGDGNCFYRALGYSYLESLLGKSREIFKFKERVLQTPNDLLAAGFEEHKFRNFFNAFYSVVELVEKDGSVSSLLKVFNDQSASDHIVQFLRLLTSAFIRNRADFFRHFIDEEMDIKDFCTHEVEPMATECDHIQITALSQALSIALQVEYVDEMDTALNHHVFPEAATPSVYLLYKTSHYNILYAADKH

PCAF = target: T4, PCAF (Homo sapiens, UniProt Q92831); design: Intact protein LC/MS covalent labelling, fragments in pools of five, 200 uM each, 4 °C; details: 24 h, 4 °C, pool of five; 200 µM; covalent
T4 construct: gene KAT2B

BSA = target: T5, BSA (Bos taurus, UniProt P02769); design: Intact protein LC/MS covalent labelling, fragments in pools of five, 200 uM each, 4 °C; details: 24 h, 4 °C, pool of five; 200 µM; covalent
T5 construct: gene ALB

in vitro [1] = test: in vitro; design: species or system CCD841, HEK293; details: human, hb2 cells, read-out: HB-2 Cells Viability (%)
in vitro [2] = test: in vitro; design: species or system HB2, CCD841; details: human, hek293 cells
in vitro [3] = test: in vitro; design: species or system HB2, HEK293; details: human, ccd841 cells

T2 sequence (P0C024 14-235): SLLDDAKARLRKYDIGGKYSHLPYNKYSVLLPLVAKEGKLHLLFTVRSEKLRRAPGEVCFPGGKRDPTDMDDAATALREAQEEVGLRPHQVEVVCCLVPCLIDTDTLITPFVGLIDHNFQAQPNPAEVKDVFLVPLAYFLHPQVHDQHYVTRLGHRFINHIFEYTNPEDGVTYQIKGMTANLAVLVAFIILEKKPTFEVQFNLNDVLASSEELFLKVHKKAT
T4 sequence (Q92831 whole entry, the tested form may be a part): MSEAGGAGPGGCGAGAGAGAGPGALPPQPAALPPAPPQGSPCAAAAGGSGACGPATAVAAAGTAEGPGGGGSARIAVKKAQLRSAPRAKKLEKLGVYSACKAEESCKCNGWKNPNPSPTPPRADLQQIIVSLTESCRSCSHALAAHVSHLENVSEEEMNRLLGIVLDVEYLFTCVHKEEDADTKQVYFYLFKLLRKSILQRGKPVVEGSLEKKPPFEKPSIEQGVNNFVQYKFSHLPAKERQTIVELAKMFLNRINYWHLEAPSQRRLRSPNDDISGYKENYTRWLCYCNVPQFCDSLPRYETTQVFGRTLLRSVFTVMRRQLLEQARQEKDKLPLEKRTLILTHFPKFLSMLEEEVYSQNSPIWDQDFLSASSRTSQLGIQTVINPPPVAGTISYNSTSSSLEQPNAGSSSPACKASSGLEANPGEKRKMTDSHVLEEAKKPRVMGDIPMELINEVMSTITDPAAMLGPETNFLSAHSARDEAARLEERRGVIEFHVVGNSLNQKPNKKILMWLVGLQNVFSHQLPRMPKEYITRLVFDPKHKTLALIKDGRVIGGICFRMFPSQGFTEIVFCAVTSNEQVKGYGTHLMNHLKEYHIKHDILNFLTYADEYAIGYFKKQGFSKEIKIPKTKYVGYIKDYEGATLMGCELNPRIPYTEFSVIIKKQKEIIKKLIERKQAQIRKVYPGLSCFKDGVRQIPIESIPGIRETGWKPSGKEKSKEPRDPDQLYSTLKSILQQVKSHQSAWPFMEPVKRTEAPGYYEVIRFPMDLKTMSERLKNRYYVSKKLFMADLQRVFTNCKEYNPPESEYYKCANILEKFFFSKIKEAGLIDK
T5 sequence (P02769 whole entry, the tested form may be a part): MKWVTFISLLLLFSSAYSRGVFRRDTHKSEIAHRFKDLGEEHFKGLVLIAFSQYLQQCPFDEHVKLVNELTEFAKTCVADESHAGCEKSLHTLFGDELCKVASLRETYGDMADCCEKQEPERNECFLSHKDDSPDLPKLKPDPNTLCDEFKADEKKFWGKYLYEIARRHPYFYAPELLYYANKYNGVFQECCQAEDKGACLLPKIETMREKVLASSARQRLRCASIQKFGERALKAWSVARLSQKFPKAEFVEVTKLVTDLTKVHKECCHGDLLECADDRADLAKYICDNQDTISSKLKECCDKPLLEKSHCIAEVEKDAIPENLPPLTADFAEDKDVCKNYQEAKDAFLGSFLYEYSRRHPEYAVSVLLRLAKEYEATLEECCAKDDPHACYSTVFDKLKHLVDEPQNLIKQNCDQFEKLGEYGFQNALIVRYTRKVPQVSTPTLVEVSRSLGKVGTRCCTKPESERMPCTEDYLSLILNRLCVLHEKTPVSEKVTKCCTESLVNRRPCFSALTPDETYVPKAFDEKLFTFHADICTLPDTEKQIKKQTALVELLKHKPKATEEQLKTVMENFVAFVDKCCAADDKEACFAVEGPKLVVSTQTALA

SMILES | NNMT (NNMT (hNNMT)) | NUDT7 (NUDT7) | OTUB2 (OTUB2 (OTUB2A)) | PCAF (PCAF) | BSA (BSA) | viability at 48 h, 10 µM (in vitro [1]) [%] | viability at 48 h, 10 µM (in vitro [2]) [%] | viability at 48 h, 10 µM (in vitro [3]) [%]
CC(NC(=O)NC(=O)CCl)C1CC2CCC1C2 (centres unmarked) [PCM-0102997] | 0.23 | 0 | 0.05 | 0 | 0 | 98.1 | 91.4 | 116
C=CC(=O)N1CCN(C(=O)Cc2c(C)noc2C)CC1 [PCM-0102531] | 0 | 0 | 0 | 0 | 0 | 106 | 91.3 | 106
C=CC(=O)N1CCCCC1c1ncon1 (centres unmarked) [PCM-0102517] | 0 | 0 | 0 | 0 | 0 | 101 | 91.3 | 120
O=C(CCl)NC1CCN(C(=O)C2CCCCC2)CC1 [PCM-0102931] | 0 | 0 | 0.09 | 0 | 0 | 82.9 | 118 | 78.6
C=CC(=O)N(C)CC1CCn2ccnc2C1 (centres unmarked) [PCM-0102752] | 0 | 0 | 0 | 0 | 0 | 97.7 | 88.4 | 122
COC(=O)C1CCN(C(=O)CCl)CC1 [PCM-0102978] | 0 | 0 | 0 | 0 | 0 | 100 | 99.4 | 110
C=CC(=O)N1CCC(C(=O)Nc2cc(C)on2)CC1 [PCM-0102477] | 0 | 0 | 0 | 0 | 0 | 99.4 | 86.9 | 115
C=CC(=O)NC1(C(N)=O)CCCOC1 (centres unmarked) [PCM-0102608] | 0 | 0 | 0 | 0 | 0 | 107 | 118 | 107
C#CCN1CCN(C(=O)CCl)CC1.Cl [PCM-0102811] | 0 | 0 | 0 | 0 | 0 | 92.5 | 72.2 | 84.9
CCOC(=O)N1CCN(C(=O)CCl)CC1 [PCM-0102861] | 0 | 0 | 0 | 0 | 0 | 114 | 82.6 | 109
C=CC(=O)N1CC(C)(C)C1c1cccs1 (centres unmarked) [PCM-0102611] | 0 | 0 | 0 | 0 | 0 | 107 | 71.3 | 95.8
Cl.O=C(CCl)N1CCN(Cc2ccc(Br)s2)CC1 [PCM-0102169] | 0 | 0 | 0 | 0 | 0 | 8.8 | 8.6 | 33

Second part, led by results:

NNMT (NNMT (hNNMT)) | NUDT7 (NUDT7) | OTUB2 (OTUB2 (OTUB2A)) | PCAF (PCAF) | BSA (BSA) | SMILES | viability at 48 h, 10 µM (in vitro [1]) [%] | viability at 48 h, 10 µM (in vitro [2]) [%] | viability at 48 h, 10 µM (in vitro [3]) [%]
0 | 0 | 0.44 | 0 | 0 | Cc1cc(NC(=O)CCl)n(-c2ccccc2F)n1 [PCM-0103066] | 64 | 36 | 65.3
0 | 0 | 0 | 0 | 0 | O=C(CCl)NC(=O)C1COc2ccccc2O1 (centres unmarked) [PCM-0102462] | 103 | 99.1 | 102
0 | 0.22 | 0.29 | 0 | 0 | CC(NC(=O)CCl)c1ccc2c(c1)CC(=O)N2 (centres unmarked) [PCM-0102816] | 94.8 | 74.8 | 86
0 | 0 | 0.62 | 0 | 0 | O=C(CCl)NCc1ccccc1F [PCM-0102149] | 86.4 | 71.3 | 63.7
0.11 | 0.1 | 0 | 0 | 0 | O=C(CCl)Nc1c(F)cc(F)cc1Br [PCM-0102189] | 79.5 | 72.4 | 59.6
0 | 0 | 0.09 | 0 | 0 | COC(=O)NC(=O)CCl [PCM-0102791] | 106 | 94.3 | 123
0 | 0.29 | 0.14 | 0 | 0 | NS(=O)(=O)c1ccccc1NC(=O)CCl [PCM-0102903] | 65.4 | 69.7 | 55.2
0 | 0 | 0.32 | 0 | 0 | N#Cc1cccc(CNC(=O)CCl)c1 [PCM-0102936] | 97.1 | 83.1 | 94.9
0.25 | 0 | 0.11 | 0 | 0 | O=C(CCl)N=c1sccn1Cc1ccccc1 [PCM-0102469] | 42.3 | 7 | 5.2
0.3 | 0.08 | 0.39 | 0 | 0 | Cc1cc(Cl)ccc1NC(=O)CCl [PCM-0102214] | 44.6 | 5.5 | 67.9
0.25 | 0 | 0.19 | 0 | 0.18 | N#CCN(C(=O)CCl)c1ccccc1 [PCM-0102471] | 43.7 | 16 | 24.4
0.26 | 0 | 0.17 | 0 | 0 | Cc1cccc(CN2CCN(C(=O)CCl)CC2)c1 [PCM-0102340] | 19.6 | 15.3 | 42.4
0.25 | 0 | 0.52 | 0 | 0 | COc1ccc(NC(=O)CCl)cc1 [PCM-0102156] | 24.7 | 2.4 | 42.7
